This is an account of results in ChEMBL document CHEMBL1926637, “Stereoselective synthesis and QSAR study of cytotoxic 2-(4-oxo-thiazolidin-2-ylidene)-2-cyano-N-arylacetamides” (Eur J Med Chem, 2012).

The structures appear in SMILES notation.

Common to all, as to type: functional, cell-based
The subject of one test is HCT-116. The test is described as follows: Cytotoxicity against human HCT116 cells after 48 hrs by sulforhodamine B assay. The settings on record: HCT-116, 48 h. (The SRB assay estimates cell density from bound dye.)
For a further test, the system named is MCF7. The test is described as follows: Cytotoxicity against human MCF7 cells after 48 hrs by sulforhodamine B assay. The following applies: MCF7, 48 h.
The next test concerns HepG2. The test is described as follows: Cytotoxicity against human HepG2 cells after 48 hrs by sulforhodamine B assay. The following applies: HepG2, 48 h.

In general, IC50 refers to the concentration that gives 50% inhibition. A high value points to weaker potency in that assay. On to `N#C/C(C(=O)Nc1ccc(Cl)cc1)=c1/s/c(=C\c2ccccc2)c(=O)n1-c1ccccc1`, for which the half-maximal inhibitory concentration (IC50) stood at 38.9 µM in the test with HCT-116, 77.5 µM with MCF7 and 49.1 µM with HepG2.
With `COc1ccc(N/N=C2\S/C(=C(/C#N)C(=O)Nc3ccc(C)cc3)N(c3ccccc3)C2=O)cc1`, the IC50 with HCT-116 is more than 103 µM; in the test with HepG2, 34.1 µM.
For `Cc1ccc(NC(=O)/C(C#N)=c2\s/c(=C\c3ccccc3O)c(=O)n2-c2ccccc2)cc1`, the figures for the IC50 in the test on HCT-116, with MCF7 and in the test with HepG2 were 6.92 µM, more than 110 µM and 8.25 µM, respectively.
As to `N#C/C(C(=O)Nc1ccccc1)=C1/S/C(=N\Nc2ccccc2)C(=O)N1c1ccccc1`, the results for the half-inhibitory concentration (IC50) in the test on HCT-116 and in the test with HepG2 were more than 114 µM and 18.8 µM, respectively.
`N#C/C(C(=O)Nc1ccc(Cl)cc1)=c1/s/c(=C\c2ccccc2O)c(=O)n1-c1ccccc1`: the IC50 in the test on HCT-116 was 6.92 µM; in the test with MCF7 it was 7.89 µM; with HepG2 it was 12.4 µM.
In the case of `COc1ccc(N/N=C2\S/C(=C(/C#N)C(=O)Nc3ccccc3)N(c3ccccc3)C2=O)cc1`, the IC50 with HCT-116 came to 46.4 µM; in the test with MCF7 it was 17.6 µM.
Consider `COc1ccc(/C=c2\s/c(=C(/C#N)C(=O)Nc3ccc(C)cc3)n(-c3ccccc3)c2=O)cc1`, for which the IC50 with HCT-116 is 9.95 µM; with MCF7 it was more than 107 µM; in the test with HepG2, 37.4 µM.
With `Cc1ccc(NC(=O)/C(C#N)=C2\S/C(=N\Nc3ccccc3)C(=O)N2c2ccccc2)cc1`, the IC50 is more than 110 µM in the test on HCT-116 and 24.2 µM with HepG2.
For the molecule `N#C/C(C(=O)Nc1ccccc1)=c1/s/c(=C\c2ccccc2O)c(=O)n1-c1ccccc1`, the IC50 is 7.8 µM in the test with HCT-116, 8.85 µM in the test on MCF7 and 83 µM in the test on HepG2.
Turning to `COc1cccc2c1C(=O)c1c(O)c3c(c(O)c1C2=O)C[C@@](O)(C(=O)CO)C[C@@H]3O[C@H]1C[C@H](N)[C@H](O)[C@H](C)O1` [DOXORUBICIN], the concentration for half-maximal inhibition (IC50) in the test with HCT-116 amounted to 6.86 µM; with HepG2 it was 7.36 µM.
As for `N#C/C(C(=O)Nc1ccccc1)=c1/s/c(=C\c2ccccc2)c(=O)n1-c1ccccc1`, the IC50 with HCT-116 worked out at 33.3 µM; with MCF7 it was 75.3 µM; with HepG2, 11 µM.
Take `COc1ccc(/C=c2\s/c(=C(/C#N)C(=O)Nc3ccccc3)n(-c3ccccc3)c2=O)cc1`: the IC50 in the test with HCT-116 is 6.61 µM; in the test on MCF7 it was 7.89 µM; in the test with HepG2, 30.4 µM.
The matching figures for `Cc1ccc(NC(=O)/C(C#N)=c2\s/c(=C\c3ccccc3)c(=O)n2-c2ccccc2)cc1`: 11 µM, 55.5 µM and 38.2 µM.
The matching figures for `Cc1ccc(NC(=O)/C(C#N)=c2\s/c(=C\c3ccc(Cl)cc3)c(=O)n2-c2ccccc2)cc1`: 28.4 µM, 28.6 µM and 48.3 µM.
Take `N#C/C(C(=O)Nc1ccc(Cl)cc1)=c1/s/c(=C\c2ccc(Cl)cc2)c(=O)n1-c1ccccc1`: the figures for the IC50 in the test with HCT-116, in the test with MCF7 and in the test with HepG2 were 9.15 µM, more than 102 µM and more than 102 µM, respectively.
`Cc1ccc(NC(=O)/C(C#N)=C2\S/C(=N\Nc3ccc(Cl)cc3)C(=O)N2c2ccccc2)cc1`: the IC50 in the test on HCT-116 was 14.9 µM; with MCF7, more than 102 µM.
